Earlier results on one compound are cited in patent publication US20260265214A1, “NOVEL DERIVATIVES OF GLYCEROL” (SYMRISE AG, priority 2023, published 2026).

For the data set the following is noted: in 28 days.

`CCCCCC1C(=O)CCC1CC(=O)OC` (stereo not shown) [methyl dihydrojasmonate, methyl 2-(3′-oxo-2′-pentylcyclopentyl)acetate]: the readily biodegradable is on record as 85%.
